Source: patent publication EP3381906A1, “COMPOUNDS FOR USE AS HEPARANASE INHIBITORS” (Leadiant Biosciences SA, priority 2017, dated 2018)
Where two headings read alike, the source gives them in different places.

What was measured:
heparanase = molecular target: T1, heparanase (Homo sapiens, UniProt Q9Y251); experiment: AGA*IA assay: heparanase-catalyzed fondaparinux cleavage, colorimetric (WST-1); type: biochemical
T1 construct: 100 µM fondaparinux, 2.5 nM heparanase and serial dilutions of test compounds
T1 sequence (Q9Y251 158-543 limits assumed): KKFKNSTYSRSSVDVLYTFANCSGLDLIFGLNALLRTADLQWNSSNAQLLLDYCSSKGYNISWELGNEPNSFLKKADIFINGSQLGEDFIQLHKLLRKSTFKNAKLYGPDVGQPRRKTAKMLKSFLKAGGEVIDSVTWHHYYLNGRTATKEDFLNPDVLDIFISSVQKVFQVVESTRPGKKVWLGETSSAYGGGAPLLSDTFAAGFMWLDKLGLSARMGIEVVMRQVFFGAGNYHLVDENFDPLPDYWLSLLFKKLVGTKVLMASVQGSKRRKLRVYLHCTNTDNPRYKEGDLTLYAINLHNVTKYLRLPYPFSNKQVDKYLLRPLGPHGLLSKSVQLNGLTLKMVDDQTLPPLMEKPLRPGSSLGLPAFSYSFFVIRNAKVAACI
T1 sequence (Q9Y251 36-109 limits assumed): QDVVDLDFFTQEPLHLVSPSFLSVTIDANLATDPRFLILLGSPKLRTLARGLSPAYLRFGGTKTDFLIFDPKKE
Protocol: All compounds were tested in a simple, accurate and robust microplate assay based on the cleavage of the synthetic heparin fragment, the pentasaccharide Fondaparinux (AGA*IA). This assay was originally developed by Hammond and coworkers [Hammond E, Li CP, Ferro V. Development of a colorimetric assay for heparanase activity suitable for kinetic analysis and inhibitor screening. […] Fondaparinux is cleaved by heparanase to generate a reducing disaccharide, which can be quantitatively measured via a colorimetric or a fluorescence assay, the last by the fluorescent sensor polymer-H [Schiemann S, Lühn S, Alban S. Development of both colorimetric and fluorescence heparinase activity assays using fondaparinux as substrate.
The assay measures the appearance of the disaccharide product of heparanase-catalyzed fondaparinux cleavage colorimetrically using the tetrazolium salt WST-1. Assay was essentially performed as described with minor modifications. Briefly, NUNC ELISA 96-well plates were pre-treated with a solution of 4% BSA (bovin serum albumin) in phosphate-buffered saline containing 0.05% Tween 20 (PBST), for 2 h at 37°C, then washed three times with PBST, dried by tapping on paper towel and stored at -20°C. Before use, once again, the plates were washed with PBST.
Then, the absorbance at 560 nm was measured through a microplate reader (Victor 3, Perkin Elmer).
Finally, the measurements were corrected by subtracting both the reagent background and the inner absorbance value of test compound.

[1] = system: U2OS (human osteosarcoma); experiment: SRB Cell Cytotoxicity Assay; type: cell-based; conditions: treated for 72h, read-out: Concentration of test compounds at which the cell growth is inhibited by 50 % U2OS
Description: (§1) SRB Cell Cytotoxicity Assay is an assay based upon the quantitative staining of cellular proteins by sulforhodamine B (SRB). This assay can be used for high-throughput drug screening (Vichai & Kirkitara, Nature Protocol. 2006, 1, 112). Sulforhodamine B is an anionic aminoxanthene dye that forms an electrostatic complex with the basic amino acid residues of proteins under moderately acid conditions, which provides a sensitive linear response.
(§2) To assess a putative antiproliferative activity of the selected compounds, HT1080 (human fibrosarcoma), U87MG (human glioblastoma astrocytoma) and U2OS (human osteosarcoma) cell lines were treated for 72h, in triplicate, with increasing concentrations of heparanase inhibitors. Inhibition of cell proliferation was then measured by the classical colorimetric SRB Cell Cytotoxicity assay. Absorbance was measured by spectrophotometer at a wavelength of 510 nm and cell proliferation was determined as percent with respect to control cells (cells treated with the vehicle alone). EC50 values were then determined by GraphPad Prism.

[2] = system: U87MG (human glioblastoma astrocytoma); experiment: SRB Cell Cytotoxicity Assay; type: cell-based; conditions: U-87 MG, treated for 72h, read-out: Concentration of test compounds at which the cell growth is inhibited by 50 % U87MG
Description: as §1, §2

[3] = system: HT1080 (human fibrosarcoma); experiment: SRB Cell Cytotoxicity Assay; type: cell-based; conditions: HT-1080, HT1080, treated for 72h, read-out: Concentration of test compounds at which the cell growth is inhibited by 50 % HT1080
Description: as §1, §2

[4] = 2.5 nM heparanase, 100 µM fondaparinux, pH 5.0, 3 h at 37°C, class symbols, read-out: AGAIA assay (IC50)

| Structure (SMILES) | IC50 (heparanase; [4]) | other results |
| --- | --- | --- |
| O=C(Nc1ccc2c(O)c(N=Nc3ccc(N=Nc4ccc(S(=O)(=O)O)cc4)cc3S(=O)(=O)O)c(S(=O)(=O)O)cc2c1)Nc1ccc2c(O)c(N=Nc3ccc(N=Nc4ccc(S(=O)(=O)O)cc4)cc3S(=O)(=O)O)c(S(=O)(=O)O)cc2c1 [SST0595] | – | IC50 (heparanase; read-out: AGAIA assay (IC50), 2.5 nM heparanase, 100 µM fondaparinux, pH 5.0, 3 h at 37°C, class symbols): 500 to 990 nM; EC50 [1]: > 10000 nM; EC50 [2]: > 10000 nM; EC50 [3]: > 10000 nM |
| O=C(Nc1ccccc1C(=O)O)c1ccc2c(c1)C(=O)N(c1ccc(Oc3ccc(N4C(=O)c5ccc(C(=O)Nc6ccccc6C(=O)O)cc5C4=O)cc3)cc1)C2=O [SST0600, Benzoic acid, 2,2'-[oxybis[4,1-phenylene(1,3-dihydro-1,3-dioxo-2H-isoindole-2,5-diyl)carbonylimino]]bis-] | 1000 to 10000 nM | – |
| O=C(Nc1ccc(Br)cc1C(=O)O)c1ccc(Oc2ccc(C(=O)Nc3ccc(Br)cc3C(=O)O)cc2)cc1 [SST0604, 5-bromo-2-[[4-[4-[(4-bromo-2-carboxyphenyl)carbamoyl]phenoxy]benzoyl]amino]benzoic acid] | 1000 to 10000 nM | – |
| O=C(Nc1cccc(-c2nc3ccccc3s2)c1)c1ccc(Oc2ccc(C(=O)Nc3cccc(-c4nc5ccccc5s4)c3)cc2)cc1 [SST0802, N-[3-(1,3-benzothiazol-2-yl)phenyl]-4-[4-[[3-(1,3-benzothiazol-2-yl)phenyl]carbamoyl]phenoxy]benzamide] | 1000 to 10000 nM | – |
| O=C(Nc1csc(-c2ccc(Oc3ccc(-c4nc(NC(=O)c5ccc(C(=O)c6ccccc6)cc5)cs4)cc3)cc2)n1)c1ccc(C(=O)c2ccccc2)cc1 [SST0804] | 1000 to 10000 nM | – |
| O=C(Nc1ccc(-c2nc3ccccc3o2)cc1)c1ccc(Oc2ccc(C(=O)Nc3ccc(-c4nc5ccccc5o4)cc3)cc2)cc1 [SST0805] | – | IC50 (heparanase): 1000 to 10000 nM |
| O=C(O)/C=C/C(=O)Nc1ccc(Sc2ccc(Oc3ccc(Sc4ccc(NC(=O)/C=C/C(=O)O)cc4)cc3)cc2)cc1 [SST0806, (E)-4-[4-[4-[4-[4-[[(E)-3-carboxyprop-2-enoyl]amino]phenyl]sulfanylphenoxy]phenyl]sulfanylanilino]-4-oxobut-2-enoic acid] | 500 to 990 nM | EC50 [1]: > 2500 nM; EC50 [2]: > 2500 nM; EC50 [3]: > 2500 nM |
| O=C(Nc1ccc(O)cc1C(=O)O)c1ccc(Oc2ccc(C(=O)Nc3ccc(O)cc3C(=O)O)cc2)cc1 [SST0810] | 1000 to 10000 nM | – |
| O=C(O)c1ccc2c(c1)C(=O)N(c1ccc(Oc3ccc(Oc4ccc(N5C(=O)c6ccc(C(=O)O)cc6C5=O)cc4)cc3)cc1)C2=O [SST0813] | 1000 to 10000 nM | – |
| O=C(Nc1ccc(O)cc1C(=O)O)c1ccc(S(=O)(=O)c2ccc(C(=O)Nc3ccc(O)cc3C(=O)O)cc2)cc1 [SST0817] | – | IC50 (heparanase): 500 to 990 nM |
| O=C(O)c1ccc(Oc2cccc(N3C(=O)c4ccc(Oc5ccc6c(c5)C(=O)N(c5cccc(Oc7ccc(C(=O)O)c(C(=O)O)c7)c5)C6=O)cc4C3=O)c2)cc1C(=O)O [SST0853, 4-[3-[5-[2-[3-(3,4-dicarboxyphenoxy)phenyl]-1,3-dioxoisoindol-5-yl]oxy-1,3-dioxoisoindol-2-yl]phenoxy]phthalic acid] | 500 to 990 nM | EC50 [1]: > 2500 nM; EC50 [2]: > 2500 nM; EC50 [3]: > 2500 nM |
| O=C(O)c1ccccc1N1C(=O)c2ccc(Oc3ccc(Oc4ccc5c(c4)C(=O)N(c4ccccc4C(=O)O)C5=O)cc3)cc2C1=O [SST0855, Benzoic acid, 2,2'-[1,4-phenylenebis[oxy(1,3-dihydro-1,3-dioxo-2H-isoindole-5,2-diyl)]]bis-] | 1000 to 10000 nM | – |
| O=C(O)c1ccc2c(c1)C(=O)N(c1cccc(Oc3cccc(Oc4cccc(N5C(=O)c6ccc(C(=O)O)cc6C5=O)c4)c3)c1)C2=O [SST0857] | 1000 to 10000 nM | – |
| O=C(O)c1ccc(N2C(=O)c3ccc(Oc4cccc(Oc5ccc6c(c5)C(=O)N(c5ccc(C(=O)O)cc5)C6=O)c4)cc3C2=O)cc1 [SST0860, Benzoic acid, 4,4'-[1,3-phenylenebis[oxy(1,3-dihydro-1,3-dioxo-2H-isoindole-5,2-diyl)]]bis-] | 1000 to 10000 nM | – |

Now from value to molecule, other results behind:

| IC50 (heparanase; [4]) | Structure (SMILES) | other results |
| --- | --- | --- |
| 1000 to 10000 nM | O=C(Nc1ccccc1C(=O)O)c1ccc2c(c1)C(=O)N(c1ccc(S(=O)(=O)c3ccc(N4C(=O)c5ccc(C(=O)Nc6ccccc6C(=O)O)cc5C4=O)cc3)cc1)C2=O [SST0602, 2-[[2-[4-[4-[5-[(2-carboxyphenyl)carbamoyl]-1,3-dioxoisoindol-2-yl]phenyl]sulfonylphenyl]-1,3-dioxoisoindole-5-carbonyl]amino]benzoic acid] | – |
| 1000 to 10000 nM | O=C(Nc1ccc(NC(=O)c2ccc(N=Nc3ccc(O)cc3O)cc2)c(S(=O)(=O)O)c1)Nc1ccc(NC(=O)c2ccc(N=Nc3ccc(O)cc3O)cc2)c(S(=O)(=O)O)c1 [SST0610] | – |
| 1000 to 10000 nM | Nc1ccc2cc(S(=O)(=O)O)cc(O)c2c1N=Nc1ccc(NC(=O)Nc2ccc(N=Nc3c(N)ccc4cc(S(=O)(=O)O)cc(O)c34)c(S(=O)(=O)O)c2)cc1S(=O)(=O)O [SST0753] | – |
| 1000 to 10000 nM | O=C(Nc1cccc(C(=O)c2ccccc2)c1)c1ccc(Oc2ccc(C(=O)Nc3cccc(C(=O)c4ccccc4)c3)cc2)cc1 [SST0801] | – |
| 1000 to 10000 nM | O=C(Nc1nc(-c2ccc3ccccc3c2)cs1)c1ccc(Oc2ccc(C(=O)Nc3nc(-c4ccc5ccccc5c4)cs3)cc2)cc1 [SST0803] | – |
| 1000 to 10000 nM | O=C(O)c1ccc(Oc2ccc3c(c2)C(=O)N(c2ccc(Oc4ccc(N5C(=O)c6ccc(Oc7ccc(C(=O)O)cc7)cc6C5=O)cc4)cc2)C3=O)cc1 [SST0807, 4-[2-[4-[4-[5-(4-carboxyphenoxy)-1,3-dioxoisoindol-2-yl]phenoxy]phenyl]-1,3-dioxoisoindol-5-yl]oxybenzoic acid] | – |
| 1000 to 10000 nM | O=C(O)c1cc(NC(=O)c2ccc(Oc3ccc(C(=O)Nc4cc(C(=O)O)cc(C(=O)O)c4)cc3)cc2)cc(C(=O)O)c1 [SST0808, 5-[[4-[4-[(3,5-dicarboxyphenyl)carbamoyl]phenoxy]benzoyl]amino]benzene-1,3-dicarboxylic acid] | – |
| 1000 to 10000 nM | O=C(O)c1ccc(NC(=O)c2ccc(Oc3ccc(C(=O)Nc4ccc(C(=O)O)cc4)cc3)cc2)cc1 [SST0809, 4,4'-[oxybis(benzene-4,1-diylcarbonylimino)]dibenzoic acid] | – |
| 1000 to 10000 nM | O=C(Nc1cccc(Oc2ccc(S(=O)(=O)c3ccc(Oc4cccc(NC(=O)c5ccc(F)cc5)c4)cc3)cc2)c1)c1ccc(F)cc1 [SST0812] | – |
| 1000 to 10000 nM | O=C(Nc1nc(-c2ccc(F)cc2)cs1)c1ccc(Oc2ccc(C(=O)Nc3nc(-c4ccc(F)cc4)cs3)cc2)cc1 [SST0815] | – |
| 1000 to 10000 nM | O=C(Nc1ccc(Oc2ccc(NC(=O)c3ccc4c(c3)C(=O)N(c3nccs3)C4=O)cc2)cc1)c1ccc2c(c1)C(=O)N(c1nccs1)C2=O [SST0816] | – |
| 500 to 990 nM | CC(C)(c1ccc(Oc2ccc3c(c2)C(=O)N(c2cccc(C(=O)O)c2)C3=O)cc1)c1ccc(Oc2ccc3c(c2)C(=O)N(c2cccc(C(=O)O)c2)C3=O)cc1 [SST0851, 3-[5-[4-[2-[4-[2-(3-carboxyphenyl)-1,3-dioxoisoindol-5-yl]oxyphenyl]propan-2-yl]phenoxy]-1,3-dioxoisoindol-2-yl]benzoic acid] | EC50 [1]: > 2500 nM; EC50 [2]: > 2500 nM; EC50 [3]: > 2500 nM |
| 1000 to 10000 nM | CC(C)(c1ccc(Oc2ccc3c(c2)C(=O)N(c2ccc(C(=O)O)cc2)C3=O)cc1)c1ccc(Oc2ccc3c(c2)C(=O)N(c2ccc(C(=O)O)cc2)C3=O)cc1 [SST0852, 4-[5-[4-[2-[4-[2-(4-carboxyphenyl)-1,3-dioxoisoindol-5-yl]oxyphenyl]propan-2-yl]phenoxy]-1,3-dioxoisoindol-2-yl]benzoic acid] | – |
